According to patent US20200087258A1, “INHIBITOR OF CITRATE TRANSPORTER AND THEIR USE IN THERAPY” (Eternygen GmbH, priority 2017, published 2020):

Biological target: T1, INDY (Homo sapiens, UniProt Q86YT5)
Experiment: 14C-citrate uptake in HepG2 cells endogenously expressing INDY (NaCT)
Assay type: cell-based
Conditions: endogenous INDY
Protocol: (§1) The compound was obtained by screening of a library containing more than 50,000 lead-like compounds and fragments. The library was tested using a functional citrate uptake assay with HEK293 cells overexpressing recombinant human INDY. The following hit confirmation was conducted in the same assay system. To confirm the activity of selected compounds on the target INDY another cell assay was conducted. In this assay system citrate uptake was measured using HepG2 cells which endogenously express INDY. Furthermore selectivity of selected compounds was tested for two other transporters in different assay systems. The first transporter was the glutamate transporter GLT-1 tested in a glutamate uptake assays using HEK293 cells overexpressing recombinant human GLT-1. The second transporter was the glucose transporter GLUT1 tested in a glucose uptake assay using Huh-7 cells which endogenously express GLUT1. Compounds were considered to be selective with an at least 5-fold higher activity for INDY than for the other two transporters.
(§2) Cells were maintained in cell medium using cell culture grade flasks (CellSTACK Corning, 500 cm2 dishes or T175 depending on cell number). The selection antibiotic and G418 (800 μg/ml) was added during cultivation but not for seeding into assay plates. For splitting, cells were washed with PBS (w/o Ca2+, Mg2+, phenol red) and detached with Trypsin/EDTA. Throughout cultivation cells were kept sub-confluent. Detached cells (50,000 cells/well) were seeded in 96-well plates (white, clear bottom from Corning #655098) and incubated over night before usage in the assay. The following media were used. For HEK293 cells expressing INDY MEM (PAA)+10% FCS+1×P/S+2 mM L-Gln; for HEK293 cells expressing GLT-1 DMEM (Gibco)+10% FCS+400 µg/ml G418; for Huh7 cells DMEM (Gibco)+10% FCS+2 mM L-Gin (+1×P/S); for HepG2 cells MEM (PAA, Cat # E15-024)+10% FCS+2 mM L-Gin+1×NEAA+1 mM Na-Pyruvat
(§3) The following assay buffers for the particular uptake reaction were used. Citrate uptake buffer: 120 mM NaCl, 5.4 mM KCl, 0.8 mM MgSO4, 5 mM glucose, 1.8 mM CaCl2, 25 mM Hepes, 25 mM MES, pH 6.5. Glutamate uptake buffer: HBSS, 1 mM CaCl2, 1 mM MgCl2, 20 mM Hepes pH 7.4. Glucose uptake buffer: 25 mM Hepes+25 mM MES pH 7.4, 120 mM NaCl, 5.4 mM KCl, 1.8 mM CaCl2, 0.8 mM MgSO4.
INDY mediated citrate uptake was also determined in HepG2 cells. To determine the uptake of ^14C labelled citrate into cells, HepG2 cells endogenously expressing human NaCT were used. (Gopal et al. 2007 Am J Physiol Gastrointest Liver Physiol 292).
HepG2 cells were seeded into white clear-bottom 96-well plates (50,000/well) coated with collagen and incubated at 37° C. for 16-24 hours. After that plates were washed once with assay buffer using automated washing/LS 405 Selectors, BioTek ending with a buffer volume of 40 μl. Then 5 μl of compound solution in assay buffer was added and incubated for 5 min at 37° C. in cell incubator, HERA cell Heraeus. Afterwards 10 μl of substrate 14C-citrate (10 nM) were added and incubated for another 90 min at 37° C. in cell incubator, HERAcell. Then plates were washed 3× with 200 μl buffer and […] cell lysis induced by adding 50 μl ice-cold NaOH (100 mM). Plates were incubated for 25 min at RT on a plate shaker and afterwards 200 μl scintillation fluid was added and incubated for 15 min on a plate shaker at RT and for another 15 min without shaking at RT. Plates were measured using a TopCount system. As a positive control 5 mM citrate was applied. It is possible to use this assay also in analogy in a 384-well plate format.

T1 sequence (Q86YT5 whole entry): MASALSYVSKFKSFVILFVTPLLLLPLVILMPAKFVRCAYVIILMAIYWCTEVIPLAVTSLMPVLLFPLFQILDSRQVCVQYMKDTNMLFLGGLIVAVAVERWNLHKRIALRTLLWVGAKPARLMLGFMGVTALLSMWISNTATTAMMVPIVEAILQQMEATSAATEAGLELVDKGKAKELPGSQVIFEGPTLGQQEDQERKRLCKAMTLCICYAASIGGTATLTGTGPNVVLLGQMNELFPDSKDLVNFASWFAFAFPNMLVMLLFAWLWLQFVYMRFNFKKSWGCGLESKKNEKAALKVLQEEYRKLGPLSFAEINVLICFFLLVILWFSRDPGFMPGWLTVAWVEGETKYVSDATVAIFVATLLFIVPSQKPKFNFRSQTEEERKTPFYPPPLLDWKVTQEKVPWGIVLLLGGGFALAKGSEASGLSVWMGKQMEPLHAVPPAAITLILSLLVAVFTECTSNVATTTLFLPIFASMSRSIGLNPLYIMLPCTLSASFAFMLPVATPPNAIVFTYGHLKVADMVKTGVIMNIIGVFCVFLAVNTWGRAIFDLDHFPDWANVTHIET

Row | IC50 | Structure (SMILES)
1 | 11.3 µM | O=C(NCc1ccccn1)C1CCN(S(=O)(=O)/C=C/c2ccccc2)CC1 [Example 3, 1-[(E)-2-phenylethenesulfonyl]-N-(pyridin-2-ylmethyl)piperidine-4-carboxamide]
2 | 5.7 µM | COc1ccc(S(=O)(=O)N2CCC(C(=O)NCc3ccccc3F)CC2)cc1 [Example 4, N-[(2-fluorophenyl)methyl]-1-(4-methoxybenzenesulfonyl) piperidine-4-carboxamide]
3 | > 50 µM | O=C(NCc1ccccc1F)N1CCN(S(=O)(=O)/C=C/c2ccccc2)CC1 [Example 7, N-[(2-fluorophenyl)methyl]-4-[(E)-2-phenylethenesulfonyl]piperazine-1-carboxamide]
4 | > 50 µM | CN(Cc1ccccc1F)C(=O)C1CCN(S(=O)(=O)/C=C/c2ccccc2)CC1 [Example 8, N-[(2-fluorophenyl)methyl]-N-methyl-1-[(E)-2-phenylethenesulfonyl]piperidine-4-carboxamide]
5 | > 50 µM | O=C(NCc1ccccc1F)C1CCN(S(=O)(=O)C2=Cc3ccccc3OC2)CC1 [Example 9, 1-(2H-chromene-3-sulfonyl)-N-[(2-fluorophenyl)methyl]piperidine-4-carboxamide]

Biological target: T1, INDY
Experiment: 14C-citrate uptake in HEK293 cells overexpressing recombinant human INDY (NaCT)
Assay type: cell-based
Design: expressed in transfected cells; host or cells: HEK293
Conditions: not given
Protocol: as §1, §2, §3
INDY mediated citrate uptake was determined in HEK293 cells. To determine the uptake of ^14C labelled citrate into cells, HEK293 cells over-expressing human NaCT were used. Cloning of human NaCT was done in analogy as described in Birkenfeld et al. (Birkenfeld et al., 2011, Cell Metabolism 14, 184-195, 2011).
Human NaCT HEK293 cells were seeded into white clear-bottom 96-well plates (50,000/well) in the presence of 4 μg/ml Poly-D-Lysine and incubated at 37° C. for 16-24 hours. On the days of the assay the plates were washed once with assay buffer using automated washing/LS 405 Selectors, BioTek ending with a buffer volume of 40 μl. Then 5 μl of compound solution in assay buffer was added and incubated for 5-30 min at 37° C. in cell incubator, HERA cell Heraeus. Afterwards 10 μl of substrate 14C-citrate ([…]/[…] per well) were added and incubated for another 20-90 min at 37° C. in cell incubator, HERAcell. Then plates were washed twice with 200 μl ice-cold assay buffer and residual volume was discarded. For cell lysis 50 μl ice-cold NaOH (100 mM) was added and incubated for 15 minutes at RT on a plate shaker. Finally, 200 μl scintillation fluid (scintillator OptiPhase Supermix, Perkin Elmer) was added. After 15 min incubation at RT without shaking, plates were measured using a TopCount reader system (Perkin Elmer). As a positive control 10 mM citrate was applied. It is possible to use this assay also in analogy in a 384-well plate format.

Row | IC50 | Structure (SMILES)
6 | > 20 µM | COC(=O)c1ccc(S(=O)(=O)N2CCC(C(=O)NCc3ccccc3F)CC2)cc1 [Example 89, methyl 4-[(4-{[(2-fluorophenyl)methyl]carbamoyl}piperidin-1-yl)sulfonyl]benzoate]
7 | > 20 µM | O=C(O)c1cccc(S(=O)(=O)N2CCC(C(=O)NCc3ccccc3F)CC2)c1 [Example 90, 3-[(4-{[(2-fluorophenyl)methyl]carbamoyl}piperidin-1-yl)sulfonyl]benzoic acid]
8 | > 20 µM | O=C(O)c1ccc(S(=O)(=O)N2CCC(C(=O)NCc3ccccc3F)CC2)cc1 [Example 91, 4-[(4-{[(2-fluorophenyl)methyl]carbamoyl}piperidin-1-yl)sulfonyl]benzoic acid]
9 | 16.4 µM | O=C(NCc1ccccn1)C1CCN(S(=O)(=O)c2cccc(OC(F)(F)F)c2)CC1 [Example 93, N-[(pyridin-2-yl)methyl]-1-[3-(trifluoromethoxy)benzenesulfonyl]piperidine-4-carboxamide]
10 | > 20 µM | O=Cc1ccc(S(=O)(=O)N2CCC(C(=O)NCc3ccccc3F)CC2)cc1 [Example 94, N-[(2-fluorophenyl)methyl]-1-(4-formylbenzenesulfonyl)piperidine-4-carboxamide]
11 | > 20 µM | NCc1ccccc1CNC(=O)C1CCN(S(=O)(=O)c2cc(Cl)cc(Cl)c2)CC1 [Example 98, N-([2-(aminomethyl)phenyl]methyl)-1-(3,5-dichlorobenzenesulfonyl)piperidine-4-carboxamide]
12 | > 20 µM | O=C(NCc1ccccc1F)C1CCN(S(=O)(=O)c2ccc(CO)cc2)CC1 [Example 100, N-[(2-fluorophenyl)methyl]-1-[4-(hydroxymethyl)benzenesulfonyl]piperidine-4-carboxamide]
13 | > 20 µM | CN(C)CCOc1ccc(S(=O)(=O)N2CCC(C(=O)NCc3ccccc3F)CC2)cc1 [Example 102, 1-(4-[2-(dimethylamino)ethoxy]benzenesulfonyl)-N-[(2-fluorophenyl)methyl]piperidine-4-carboxamide]
14 | > 20 µM | O=C(NCc1ccc(CO)cc1)C1CCN(S(=O)(=O)c2ccc(C(F)(F)F)cc2)CC1 [Example 104, N-([4-(hydroxymethyl)phenyl]methyl)-1-[4-(trifluoromethyl)benzenesulfonyl]piperidine-4-carboxamide]
15 | > 20 µM | O=C(NCc1ccccc1F)C1CCN(S(=O)(=O)c2ccc(CN3CCCC3)cc2)CC1 [Example 105, N-[(2-fluorophenyl)methyl]-1-{4-[(pyrrolidin-1-yl)methyl]benzenesulfonyl}piperidine-4-carboxamide]
16 | 11.1 µM | CC(=O)c1cccc(S(=O)(=O)N2CCC(C(=O)NCc3ccccc3F)CC2)c1 [Example 106, 1-(3-acetylbenzenesulfonyl)-N-[(2-fluorophenyl)methyl]piperidine-4-carboxamide]
17 | 13.2 µM | CC(O)c1cccc(S(=O)(=O)N2CCC(C(=O)NCc3ccccc3F)CC2)c1 (stereo not shown) [Example 107, N-[(2-fluorophenyl)methyl]-1-[3-(1-hydroxyethyl)benzenesulfonyl]piperidine-4-carboxamide]
18 | 20.4 µM | C/C(=N\O)c1cccc(S(=O)(=O)N2CCC(C(=O)NCc3ccccc3F)CC2)c1 [Example 108, N-[(2-fluorophenyl)methyl]-1-{3-[(1E)-1-(hydroxyimino)ethyl]benzenesulfonyl}piperidine-4-carboxamide]
19 | > 20 µM | CCCNC(C)c1cccc(S(=O)(=O)N2CCC(C(=O)NCc3ccccc3F)CC2)c1 (stereo not shown) [Example 109, N-[(2-fluorophenyl)methyl]-1-{3-[1-(propylamino)ethyl]benzenesulfonyl}piperidine-4-carboxamide]
20 | > 20 µM | CNC(C)c1cccc(S(=O)(=O)N2CCC(C(=O)NCc3ccccc3F)CC2)c1 (stereo not shown) [Example 110, N-[(2-fluorophenyl)methyl]-1-{3-[1-(methylamino)ethyl]benzenesulfonyl}piperidine-4-carboxamide]
21 | > 20 µM | CCN(CC)C(C)c1cccc(S(=O)(=O)N2CCC(C(=O)NCc3ccccc3F)CC2)c1 (stereo not shown) [Example 113, 1-{3-[1-(diethylamino)ethyl]benzenesulfonyl}-N-[(2-fluorophenyl)methyl]piperidine-4-carboxamide]
22 | > 20 µM | O=C(O)c1cccc(CNC(=O)C2CCN(S(=O)(=O)c3cc(Cl)cc(Cl)c3)CC2)c1 [Example 119, 3-({[1-(3,5-dichlorobenzenesulfonyl)piperidin-4-yl]formamido}methyl)benzoic acid]
23 | 18.8 µM | Cc1cc(S(=O)(=O)N2CCC(C(=O)NCc3ccccn3)CC2)ccc1Cl [Example 121, 1-(4-chloro-3-methylbenzenesulfonyl)-N-[(pyridin-2-yl)methyl]piperidine-4-carboxamide]
24 | 18.8 µM | Cc1ccc(S(=O)(=O)N2CCC(C(=O)NCc3ccccn3)CC2)cc1Cl [Example 122, 1-(3-chloro-4-methylbenzenesulfonyl)-N-[(pyridin-2-yl)methyl]piperidine-4-carboxamide]
25 | > 20 µM | CN(Cc1ccccn1)C(=O)C1CCN(S(=O)(=O)c2cc(Cl)cc(Cl)c2)CC1 [Example 128, 1-(3,5-dichlorobenzenesulfonyl)-N-methyl-N-[(pyridin-2-yl)methyl]piperidine-4-carboxamide]
